According to patent publication US20160158245A1, “PHARMACEUTICAL FORMULATION CONTAINING THIENOTRIAZOLODIAZEPINE COMPOUNDS” (ONCOETHIX GmbH, priority 2013, published 2016):

Legend:
Assay type in all cases: cell-based
c-MYC = experiment: QT-PCR of c-MYC in leukemia cell lines; conditions: all cell lines, 250 nM and 500 nM, 48 h
Protocol: The oncogene c-MYC is thought to be activated by BRD4 and is crucial for leukemia maintenance. […] We determined basal gene expression levels of c-MYC in different leukemia cell lines showing heterogeneous results without clear correlation to biologic effects of Compound (1-1) in regard to MTT, apoptosis or cell cycle effects (FIGS. 42A and 42B).
The total RNA obtained after extraction with TRIZOL (Invitrogen, Grand Island, USA) were titrated to 1 μg/uL and stored at −80° C. The complementary DNA (cDNA) was synthesized from 1 μg RNA. The RQ-PCR reactions (BRD2, BRD3, BRD4, c-MYC and ABL) were performed in a volume of 25 ul from a tenth of the cDNA (equivalent to 100 ng of RNA) on a thermocycler ABI7900HT in standard mode (1 cycle of 2 minutes at 50° C.-10 minutes at 95° C. followed by 50 cycles of 15 seconds at 95° C.-1 minute at 60° C.).

KG1a = experiment: Apoptosis assessment (annexin V/PI flow cytometry); conditions: 96 hours at 10 nM
Protocol: (§1) a total of 1×10^6 cellsderived from patients or cell lines were resuspended in 1 mL culture medium and incubated with the indicated dosages of OTX015 prepared freshly from 1 mM stock solution in DMSO. Control cells were incubated with the corresponding amount of dimethyl sulfoxide (DMSO 0.2-1%) to exclude toxicity of the excipient. Apoptotic cells were detected by cytofluorometric analysis using a FACScan (Becton Dickinson, Mountain View, USA). Cells were stained with propidium iodide (PI; 5 μg/mL; Becton Dickinson) and concomitantly for 15 minutes at RT with annexin-V-FITC (Becton Dickinson) according to the manufacturer's instructions to determine outer membrane phosphatidyl serine exposure. Data were analyzed with the Flowjo (Tree Star Inc., Ashland, USA) flow cytometry software.

Jurkat = experiment: Apoptosis assessment (annexin V/PI flow cytometry)
Protocol: as §1

RS4-11 = experiment: Apoptosis assessment (annexin V/PI flow cytometry); conditions: RS4-11, 96 hours at 10 nM
Protocol: as §1

KG1 = experiment: Apoptosis assessment (annexin V/PI flow cytometry)
Protocol: as §1

K562 = experiment: Apoptosis assessment (annexin V/PI flow cytometry)
Protocol: as §1

HL60 = experiment: Apoptosis assessment (annexin V/PI flow cytometry)
Protocol: as §1

TOM-1 = experiment: Apoptosis assessment (annexin V/PI flow cytometry); conditions: TOM-1, 96 hours at 10 nM
Protocol: as §1

ALL and AML cell lines = experiment: Cell cycle analysis (PI flow cytometry)
Protocol: For conventional cell-cycle analysis, 1×10^6 cells were harvested, washed in PBS, and fixed in 70% ice cold ethanol. Cells were incubated with 100 μg/mL RNAse (Sigma, Saint-Quentin Fallavier, France) and stained with PI (25 μg/mL, Becton Dickinson) followed by an incubation period of 30 minutes at 37° C. Subsequently, cell-cycle distribution was determined by cytofluorometric analysis. Data were analyzed with the Flowjo (Tree Star Inc., Ashland, USA) flow cytometry software.

Cc1sc2c(c1C)C(c1ccc(Cl)cc1)=N[C@@H](CC(=O)Nc1ccc(O)cc1)c1nnc(C)n1-2 [Compound (1-1), 2-[(6S)-4-(4-chlorophenyl)-2,3,9-trimethyl-6H-thienol[3,2-f]-[1,2,4]triazolo[4,3-a][1,4]diazepin-6-yl]-N-(4-hydroxyphenyl)acetamide dihydrate]
c-MYC gene expression (c-MYC): c-MYC downregulation was observed in all cell lines | apoptosis (KG1a): 45% | delayed apoptosis after drug washout (Jurkat; 6 hours exposure, read at 96 hours): significant delayed apoptosis | apoptosis (Jurkat; 96 hours at 10 nM): > 90% | apoptosis (RS4-11): 30% | induction of apoptosis at lower dose (KG1; KG1, 10 nM, 72 hours): induced apoptosis after prolonged incubation | apoptosis (KG1; KG1, 96 hours at 10 nM): > 90% | delayed apoptosis after drug washout (K562; K562, 6 hours exposure, read at 96 hours): but not in the less sensitive K562 | apoptosis (K562; K562, 96 hours at 10 nM): 20% | apoptotic cells (K562; K562, at 24 hours): 20% | delayed apoptosis after drug washout (HL60; HL60, 6 hours exposure, read at 96 hours): significant delayed apoptosis | apoptosis (HL60; HL60, 96 hours at 10 nM): > 90% | apoptosis (TOM-1): 70% | S phase fraction (ALL and AML cell lines; 48 h, AML and ALL cell lines): decreased S phase fraction in almost all cell lines | cell cycle arrest (ALL and AML cell lines; all cell lines): induced cell cycle arrest in all cell lines
